The values that follow come from BindingDB's records for doi:10.1111/cbdd.12141 (Konkuk University, 2013).

Xanthine dehydrogenase/oxidase, sequence (P80457 whole entry): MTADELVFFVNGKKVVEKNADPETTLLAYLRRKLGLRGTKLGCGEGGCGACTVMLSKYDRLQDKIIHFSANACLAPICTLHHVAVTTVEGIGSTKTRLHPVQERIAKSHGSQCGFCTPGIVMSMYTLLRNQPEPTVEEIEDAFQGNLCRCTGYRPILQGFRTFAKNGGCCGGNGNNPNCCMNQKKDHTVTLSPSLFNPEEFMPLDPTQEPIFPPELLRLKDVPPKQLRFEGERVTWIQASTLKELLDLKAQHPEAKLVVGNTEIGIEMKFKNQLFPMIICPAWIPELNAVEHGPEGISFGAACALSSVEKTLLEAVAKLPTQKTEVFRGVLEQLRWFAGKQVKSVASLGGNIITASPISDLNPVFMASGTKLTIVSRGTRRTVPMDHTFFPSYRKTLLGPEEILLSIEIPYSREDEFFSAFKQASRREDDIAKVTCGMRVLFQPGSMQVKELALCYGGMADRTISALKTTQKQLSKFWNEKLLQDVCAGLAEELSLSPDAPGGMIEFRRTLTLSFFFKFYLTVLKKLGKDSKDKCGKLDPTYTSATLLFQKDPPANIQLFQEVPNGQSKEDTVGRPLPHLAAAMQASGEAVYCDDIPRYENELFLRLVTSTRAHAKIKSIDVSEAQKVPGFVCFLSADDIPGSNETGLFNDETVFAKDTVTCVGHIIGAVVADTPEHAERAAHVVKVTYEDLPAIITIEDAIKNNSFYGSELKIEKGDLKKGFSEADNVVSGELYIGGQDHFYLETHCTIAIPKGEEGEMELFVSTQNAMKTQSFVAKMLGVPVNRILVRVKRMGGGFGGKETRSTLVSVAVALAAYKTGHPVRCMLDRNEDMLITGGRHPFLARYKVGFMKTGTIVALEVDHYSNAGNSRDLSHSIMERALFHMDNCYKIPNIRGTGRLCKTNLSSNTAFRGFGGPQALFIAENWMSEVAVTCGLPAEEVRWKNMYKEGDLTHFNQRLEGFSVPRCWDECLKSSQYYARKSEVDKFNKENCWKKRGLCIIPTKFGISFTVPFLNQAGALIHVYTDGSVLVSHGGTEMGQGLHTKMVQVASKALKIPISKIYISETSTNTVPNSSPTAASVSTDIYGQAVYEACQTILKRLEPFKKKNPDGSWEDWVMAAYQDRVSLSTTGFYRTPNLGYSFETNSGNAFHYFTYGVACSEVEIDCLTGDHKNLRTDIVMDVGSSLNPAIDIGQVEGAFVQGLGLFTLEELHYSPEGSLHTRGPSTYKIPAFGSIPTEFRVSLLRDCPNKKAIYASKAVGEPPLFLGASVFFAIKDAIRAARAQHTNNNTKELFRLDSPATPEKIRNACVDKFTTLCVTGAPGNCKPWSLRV

This assay concerns the target Xanthine dehydrogenase/oxidase (Bos taurus, UniProt P80457). Nature of the assay: XO inhibitory activity. As to conditions: pH 7.6; 25 °C. On the procedure:
The enzyme was pre-incubated for 5 min, with test compound, dissolved in DMSO (1% v/v). The reaction was initiated by the addition of xanthine.
Take `Oc1ccccc1Cn1c(-c2ccccc2O)nc2ccccc21`: the IC50 came out at 8.7 µM.
The value for `c1ccc(Cn2c(-c3ccccc3)nc3ccccc32)cc1` [1‐benzyl‐2‐phenyl‐1,3‐benzodiazole (B10)] was 9.7 µM; that for `Oc1ccc2ccccc2c1-c1nc2ccccc2n1Cc1ccc2ccccc2c1O` [1‐{1‐[(1‐hydroxynaphthalen‐2‐yl)methyl]‐1,3‐ benzodiazol‐2‐yl}naphthalen‐2‐ol (B11)] was 5.3 µM.
The figure for `Clc1ccccc1Cn1c(-c2ccccc2Cl)nc2ccccc21` [2‐(2‐chlorophenyl)‐1‐[(2‐chlorophenyl)methyl]‐1,3‐ benzodiazole (B3)] is 4.4 µM; for `Cc1ccccc1Cn1c(-c2ccccc2C)nc2ccccc21` [2‐(2‐methylphenyl)‐1‐[(2‐methylphenyl)methyl]‐1,3‐ benzodiazole (B4)] it is 5.6 µM; for `Clc1cccc(Cn2c(-c3cccc(Cl)c3)nc3ccccc32)c1` [2‐(3‐chlorophenyl)‐1‐[(3‐chlorophenyl)methyl]‐1,3‐ benzodiazole (B8)] it is 8.2 µM.
In turn, `COc1cccc(Cn2c(-c3cccc(OC)c3)nc3ccccc32)c1` [2‐(3‐methoxyphenyl)‐1‐[(3‐methoxyphenyl)methyl]‐ 1,3‐benzodiazole (B13)] gave a half-inhibitory concentration (IC50) of 5.1 µM.
The figure for `Cc1cccc(Cn2c(-c3cccc(C)c3)nc3ccccc32)c1` [2‐(3‐methylphenyl)‐1‐[(3‐methylphenyl)methyl]‐1,3‐ benzodiazole (B9)] is 4.3 µM.
As to `Clc1ccc(Cn2c(-c3ccc(Cl)cc3)nc3ccccc32)cc1` [2‐(4‐chlorophenyl)‐1‐[(4‐chlorophenyl)methyl]‐1,3‐ benzodiazole (B2)], the IC50 was 6.3 µM.
The figure for `COc1ccc(Cn2c(-c3ccc(OC)cc3)nc3ccccc32)cc1` [2‐(4‐methoxyphenyl)‐1‐[(4‐methoxyphenyl)methyl]‐ 1,3‐benzodiazole (B14)] is 8.5 µM; for `Cc1ccc(Cn2c(-c3ccc(C)cc3)nc3ccccc32)cc1` [2‐(4‐methylphenyl)‐1‐[(4‐methylphenyl)methyl]‐1,3‐ benzodiazole (B5)] it is 7.5 µM.
The value for `c1cncc(Cn2c(-c3cccnc3)nc3ccccc32)c1` [2‐(pyridin‐3‐yl)‐1‐(pyridin‐3‐ylmethyl)‐1,3‐ benzodiazole (B12)] was 7.1 µM; that for `Oc1cccc(Cn2c(-c3cccc(O)c3)nc3ccccc32)c1` [3‐{1‐[(3‐hydroxyphenyl)methyl]‐1,3‐benzodiazol‐2‐ yl}phenol (B7)] was 5.8 µM; that for `Oc1ccc(Cn2c(-c3ccc(O)cc3)nc3ccccc32)cc1` [4‐{1‐[(4‐hydroxyphenyl)methyl]‐1,3‐benzodiazol‐2‐ yl}phenol (B6)] was 4.5 µM.

For orientation: IC50 means the concentration that gives 50% inhibition.
